Laboratory results published in patent US9765105B2, “Macrolide compound” (Pulike Biological Engineering, Inc., priority 2013, dated 2017).

What was measured:
Assay in all cases: in vitro susceptibility, MIC by mini broth dilution
Format in all cases: cell-based
[1] = tested on: Staphylococcus aureus CVCC26003; details: strain CVCC26003
Experimental: (§1) in vitro tests of susceptibility of the compounds according to the present disclosure against bacterial strains commonly used in laboratories. In accordance with the Performance Standards for Antimicrobial Disk Susceptibility Tests: Approved Standard published by the US National Committee for Clinical Laboratory Standards, the antibacterial activities of compounds prepared according to examples 5 to 187 were tested. The MICs (minimum inhibitory concentration) of the medicaments prepared according to the examples on the following bacterial strains were measured through mini broth dilution technique. Staphylococcus aureus CVCC26003, Streptococcus equines CVCC556. Actinobacillus pleuropneumoniae CVCC262, Haemophilus parasuis, and Pasteurella multocida CVCC399, which were purchased from the Control Institute of Veterinary Bioproducts and Pharmaceuticals, China. 4.1.1 Culture Medium for Staphylococcus aureus CVCC26003 Liquid culture medium: CAMHB. […] Solid culture medium: NINA prepared according to the specification of the final product. The strains were taken out of a refrigerator at −20° C. to be revived, and were spreaded by streaking on the solid culture medium with an inoculating loop. The inoculated culture medium was cultured at 35° C. in a constant temperature incubator for 20 h. […] were selected from a well-grown culture plate and streaked on the solid culture medium. The inoculated culture medium was cultured at 35° C. in the constant temperature incubator for 20 h. […] A 96-well plate was used, and 100 μl of DMSO was added into each of wells 2 to 11, and 200 μl of ready-prepared medicament solution was added into the 1st well, 100 μl of the medicament solution was extracted from the 1st well and added into the 2nd well. Double dilution was performed until the 11th well, thereby forming 11 gradients. In this case, compound of parent plate was prepared. 3 μl of double diluted medicament solution was extracted with a 12-channel pipettor and added into wells 1-11 of a new disposable 96-well culture plate. The 12th well thereof is a control well. For each medicament, there are two adjacent rows which are parallel. The transferred compound plate was reserved for later use. […] The dilution ratio was recorded, and the bacterial liquid for the tests was diluted according to the recorded dilution ratio. Subsequently, the bacterial suspension and the liquid culture medium were diluted in the proportion of 1:200. The diluted solution was reserved for later use.

[2] = tested on: Actinobacillus pleuropneumoniae CVCC262; details: strain CVCC262
Experimental: as §1, with “China. 4.1.2” for “China. 4.1.1”, “Culture Media” for “Culture Medium”, “for the Rest Four Bacterial Strains.” for “for Staphylococcus aureus CVCC26003”, “medium:” for “medium: CAMHB.”, “medium: […]” for “medium: NINA prepared according to the specification of the final product.”

Haemophilus parasuis = tested on: Haemophilus parasuis
Experimental: as §1, with “China. 4.1.2” for “China. 4.1.1”, “Culture Media” for “Culture Medium”, “for the Rest Four Bacterial Strains.” for “for Staphylococcus aureus CVCC26003”, “medium:” for “medium: CAMHB.”, “medium: […]” for “medium: NINA prepared according to the specification of the final product.”

[3] = tested on: Pasteurella multocida CVCC399; details: strain CVCC399
Experimental: as §1, with “China. 4.1.2” for “China. 4.1.1”, “Culture Media” for “Culture Medium”, “for the Rest Four Bacterial Strains.” for “for Staphylococcus aureus CVCC26003”, “medium:” for “medium: CAMHB.”, “medium: […]” for “medium: NINA prepared according to the specification of the final product.”

[4] = tested on: Streptococcus equines CVCC556; details: strain CVCC556
Experimental: as §1, with “China. 4.1.2” for “China. 4.1.1”, “Culture Media” for “Culture Medium”, “for the Rest Four Bacterial Strains.” for “for Staphylococcus aureus CVCC26003”, “medium:” for “medium: CAMHB.”, “medium: […]” for “medium: NINA prepared according to the specification of the final product.”

| SMILES | MIC values, Staphylococcus aureus CVCC26003 [1] | MIC values, Actinobacillus pleuropneumoniae CVCC262 [2] [ug/mi] | MIC values, Haemophilus parasuis (Haemophilus parasuis) | MIC values, Pasteurella multocida CVCC399 [3] | MIC values, Streptococcus equines CVCC556 [4] |
| --- | --- | --- | --- | --- | --- |
| CCCN1C[C@H](C)[C@@H](O)[C@](C)(O)[C@@H](CC)OC(=O)[C@H](C)[C@@H](O[C@H]2C[C@@](C)(OC)[C@](O)(CNCC)[C@H](C)O2)[C@H](C)[C@@H](O[C@@H]2O[C@H](C)C[C@H](N(C)C)[C@H]2O)[C@](C)(O)C[C@H]1C [syzx-110] | 0.25 ug/mi | 0.25 | 0.25 ug/mi | 0.5 ug/mi | 0.25 ug/mi |
| C#CCNC[C@]1(O)[C@H](C)O[C@@H](O[C@H]2[C@H](C)[C@@H](O[C@@H]3O[C@H](C)C[C@H](N(C)C)[C@H]3O)[C@](C)(O)C[C@@H](C)N(CCC)C[C@H](C)[C@@H](O)[C@](C)(O)[C@@H](CC)OC(=O)[C@@H]2C)C[C@@]1(C)OC [syzx-140] | 0.25 ug/mi | 0.25 | 0.25 ug/mi | 1 ug/mi | 0.25 ug/mi |
| CC[C@H]1OC(=O)[C@H](C)[C@@H](O[C@H]2C[C@@](C)(OC)[C@](O)(CNc3ccc(F)cn3)[C@H](C)O2)[C@H](C)[C@@H](O[C@@H]2O[C@H](C)C[C@H](N(C)C)[C@H]2O)[C@](C)(O)C[C@@H](C)NC[C@H](C)[C@@H](O)[C@]1(C)O [syzx-86, (2R,3S,4R,5S,8R,10R,11R,12S,13S,14R)-13-[(2,6-dideoxy-3-C-methyl-3-O-methyl-4-C-[(5-fluoropyridin-2-yl-amino)-methyl]-α-L-ribopyranosyl)oxy]-2-ethyl-3,4,10-trihydroxy-3,5,8,10,12,14-hexamethyl-11-[[3,4,6-trideoxy-3-(dimethylamino)-β-D-xylo-hexopyranosy]oxy]-1-oxa-7-azacyclopentadecan-15-one] | ≦0.25 ug/mi | 2 | ≦0.25 ug/mi | 0.25 ug/mi | ≦0.25 ug/mi |
| CCCN1C[C@H](C)[C@@H](O)[C@](C)(O)[C@@H](CC)OC(=O)[C@H](C)[C@@H](O[C@H]2C[C@@](C)(OC)[C@](O)(CNc3ccccc3)[C@H](C)O2)[C@H](C)[C@@H](O[C@@H]2O[C@H](C)C[C@H](N(C)C)[C@H]2O)[C@](C)(O)C[C@H]1C [syzx-104] | 0.25 ug/mi | 0.25 | 0.25 ug/mi | 1 ug/mi | 0.25 ug/mi |
| CCCN1C[C@H](C)[C@@H](O)[C@](C)(O)[C@@H](CC)OC(=O)[C@H](C)[C@@H](O[C@H]2C[C@@](C)(OC)[C@](O)(CNc3cc(C(F)(F)F)cc(C(F)(F)F)c3)[C@H](C)O2)[C@H](C)[C@@H](O[C@@H]2O[C@H](C)C[C@H](N(C)C)[C@H]2O)[C@](C)(O)C[C@H]1C [syzx-230] | 4 ug/mi | 2 | 2 ug/mi | 8 ug/mi | 0.25 ug/mi |
| CCCC(C)NC[C@]1(O)[C@H](C)O[C@@H](O[C@H]2[C@H](C)[C@@H](O[C@@H]3O[C@H](C)C[C@H](N(C)C)[C@H]3O)[C@](C)(O)C[C@@H](C)NC[C@H](C)[C@@H](O)[C@](C)(O)[C@@H](CC)OC(=O)[C@@H]2C)C[C@@]1(C)OC (stereo partly shown) [syzx-63] | 0.5 ug/mi | 0.5 | ≦0.25 ug/mi | ≦0.25 ug/mi | ≦0.25 ug/mi |
| CC[C@H]1OC(=O)[C@H](C)[C@@H](O[C@H]2C[C@@](C)(OC)[C@](O)(CNCc3ccccc3OC)[C@H](C)O2)[C@H](C)[C@@H](O[C@@H]2O[C@H](C)C[C@H](N(C)C)[C@H]2O)[C@](C)(O)C[C@@H](C)NC[C@H](C)[C@@H](O)[C@]1(C)O [syzx-27] | 0.5 ug/mi | 4 | ≦0.25 ug/mi | 0.5 ug/mi | ≦0.25 ug/mi |
| CCCN1C[C@H](C)[C@@H](O)[C@](C)(O)[C@@H](CC)OC(=O)[C@H](C)[C@@H](O[C@H]2C[C@@](C)(OC)[C@](O)(CNCc3ccc(F)c(F)c3)[C@H](C)O2)[C@H](C)[C@@H](O[C@@H]2O[C@H](C)C[C@H](N(C)C)[C@H]2O)[C@](C)(O)C[C@H]1C [syzx-154] | 0.25 ug/mi | 0.25 | 0.25 ug/mi | 0.5 ug/mi | 0.5 ug/mi |
| CCCN1C[C@H](C)[C@@H](O)[C@](C)(O)[C@@H](CC)OC(=O)[C@H](C)[C@@H](O[C@H]2C[C@@](C)(OC)[C@](O)(CNCCCN3CCOCC3)[C@H](C)O2)[C@H](C)[C@@H](O[C@@H]2O[C@H](C)C[C@H](N(C)C)[C@H]2O)[C@](C)(O)C[C@H]1C [syzx-169] | 0.25 ug/mi | 0.25 | 0.25 ug/mi | 0.5 ug/mi | 0.25 ug/mi |
| CCCN1C[C@H](C)[C@@H](O)[C@](C)(O)[C@@H](CC)OC(=O)[C@H](C)[C@@H](O[C@H]2C[C@@](C)(OC)[C@](O)(CNCCc3ccc(S(N)(=O)=O)cc3)[C@H](C)O2)[C@H](C)[C@@H](O[C@@H]2O[C@H](C)C[C@H](N(C)C)[C@H]2O)[C@](C)(O)C[C@H]1C [syzx-161] | 0.25 ug/mi | 0.25 | 0.25 ug/mi | 0.5 ug/mi | 0.25 ug/mi |
| CC[C@H]1OC(=O)[C@H](C)[C@@H](O[C@H]2C[C@@](C)(OC)[C@](O)(CNc3ccccc3F)[C@H](C)O2)[C@H](C)[C@@H](O[C@@H]2O[C@H](C)C[C@H](N(C)C)[C@H]2O)[C@](C)(O)C[C@@H](C)NC[C@H](C)[C@@H](O)[C@]1(C)O [syzx-95, (2R,3S,4R,5S,8R,10R,11R,12S,13S,14R)-13-[(2,6-dideoxy-3-C-methyl-3-O-methyl-4-C-[(2-fluoro-phenyl-amino)-methyl]-α-L-ribopyranosyl)oxy]-2-ethyl-3,4,10-trihydroxy-3,5,8,10,12,14-hexamethyl-11-[[3,4,6-trideoxy-3-(dimethylamino)-β-D-xylo-hexopyranosy]oxy]-1-oxa-7-azacyclopentadecan-15-one] | 2 ug/mi | 2 | 2 ug/mi | 2 ug/mi | 0.5 ug/mi |
